For two compounds, Ki and CPM results are on record in article PMC10539439 (Pharmacological Reports, 2023).

Structures are written as SMILES. Several values for one entry are separate records, joined by “and”; a condition that tells them apart may be missing. Identical values can stand only once. Like-named read-outs stand apart in the source and are kept apart here.

One assay has as its target α1-adrenoceptor. Nature of the assay: Competitive radioligand-binding assay, [3H]prazosin. On the set-up: species or system rat. On the procedure: (§1) 10 mM stock solutions of test compounds were prepared in DMSO. Serial dilutions of compounds were prepared in 96-well microplate in assay buffers using an automated pipetting system epMotion 5070 (Eppendorf, Poland). Each compound was tested in 6 concentrations of 1.0E-05 to 1.0E-10 M (final concentration).
(§2) Affinity towards α1- and α2-adrenoceptors was evaluated using the competitive radioligand-binding assay. Experiments were conducted in the rat cerebral cortex. Radioligand [3H]prazosin (84,2 Ci/mmol, α1-adrenoceptor, PerkinElmer, Poland, NET823001MC) and [3H]clonidine (70.5 Ci/mmol, α2-adrenoceptor, PerkinElmer, Poland, NET613250UC) were used. The membrane preparation and the assay procedure were carried out accordingly as previously published. Radioactivity was counted on the MicroBeta2 scintillation counter (PerkinElmer, Poland). Data were fitted to a one-site curve-fitting equation with Prism 8 (GraphPad Software, USA), and Ki values were estimated from the Cheng–Prusoff equation.

A further assay addresses T1, α2-adrenoceptor (Rattus norvegicus, UniProt P22909).
T1 sequence (P22909 1-465): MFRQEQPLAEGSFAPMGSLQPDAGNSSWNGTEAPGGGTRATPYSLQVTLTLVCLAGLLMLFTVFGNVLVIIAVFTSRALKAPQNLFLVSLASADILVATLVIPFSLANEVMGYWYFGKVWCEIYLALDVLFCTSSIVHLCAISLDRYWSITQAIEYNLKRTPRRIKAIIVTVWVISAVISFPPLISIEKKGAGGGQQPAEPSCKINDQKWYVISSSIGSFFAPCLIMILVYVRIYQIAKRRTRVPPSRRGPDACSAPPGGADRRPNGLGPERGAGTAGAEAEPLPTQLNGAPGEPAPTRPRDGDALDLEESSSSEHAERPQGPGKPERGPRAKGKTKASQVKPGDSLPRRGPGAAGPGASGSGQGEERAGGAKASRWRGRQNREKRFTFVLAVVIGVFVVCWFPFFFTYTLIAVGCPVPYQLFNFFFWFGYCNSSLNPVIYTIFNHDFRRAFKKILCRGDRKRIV
Nature of the assay: Competitive radioligand-binding assay, [3H]clonidine. As to conditions: ADRA2, experiments 1-3, duplicates. On the procedure:
as §1, §2

As for `Cc1ccc(N(CC2=NCCN2)c2cccc(O)c2)cc1` [Phentolamine], the inhibitory constant (Ki) on α1-adrenoceptor (ADRA1, experiment 1, 2, 3, read-out: Ki, single experiments) is 14.9 nM and 9.23 nM and 10.1 nM; on α1-adrenoceptor ([3H] prazosin, rat cerebral cortex, mean ± SEM, n = 3, read-out: Ki) it was 11.3 ± 1.7 nM.

On to `CNC[C@H](O)c1cccc(O)c1` [Phenylephrine], for which the CPM is 141 CPM and 116 CPM and 96 CPM and 109 CPM and 123 CPM and 92 CPM on α2-adrenoceptor (log of molar concentration -5); 126 CPM and 136 CPM and 132 CPM and 152 CPM and 190 CPM and 224 CPM on α2-adrenoceptor (log of molar concentration -6); 392 CPM and 260 CPM and 300 CPM and 297 CPM and 293 CPM on α2-adrenoceptor (log of molar concentration -7); 433 CPM and 441 CPM and 410 CPM and 390 CPM and 339 CPM and 367 CPM at α2-adrenoceptor (log of molar concentration -8); 380 CPM and 398 CPM and 394 CPM and 410 CPM and 367 CPM and 391 CPM on α2-adrenoceptor (log of molar concentration -9); 502 CPM and 429 CPM and 290 CPM and 400 CPM and 415 CPM and 423 CPM on α2-adrenoceptor (log of molar concentration -10).

Broadly, the Ki is a measure of affinity in units of concentration, obtained from inhibition or displacement.
